The source of these data is patent publication US4448781A, “N-Benzyl-imidazoles as selective inhibitors of the thromboxane synthetase enzyme” (Pfizer Inc., priority 1979, dated 1984).

Counter-ions that a name gives are not always drawn.

Experiment [1] addresses T1, prostacyclin synthetase (Sus scrofa, UniProt A0A5G2QT35).
T1 construct: Pig aorta microsomes; from tissue; host or cells: pig aorta (microsomes)
T1 sequence (A0A5G2QT35 1-497): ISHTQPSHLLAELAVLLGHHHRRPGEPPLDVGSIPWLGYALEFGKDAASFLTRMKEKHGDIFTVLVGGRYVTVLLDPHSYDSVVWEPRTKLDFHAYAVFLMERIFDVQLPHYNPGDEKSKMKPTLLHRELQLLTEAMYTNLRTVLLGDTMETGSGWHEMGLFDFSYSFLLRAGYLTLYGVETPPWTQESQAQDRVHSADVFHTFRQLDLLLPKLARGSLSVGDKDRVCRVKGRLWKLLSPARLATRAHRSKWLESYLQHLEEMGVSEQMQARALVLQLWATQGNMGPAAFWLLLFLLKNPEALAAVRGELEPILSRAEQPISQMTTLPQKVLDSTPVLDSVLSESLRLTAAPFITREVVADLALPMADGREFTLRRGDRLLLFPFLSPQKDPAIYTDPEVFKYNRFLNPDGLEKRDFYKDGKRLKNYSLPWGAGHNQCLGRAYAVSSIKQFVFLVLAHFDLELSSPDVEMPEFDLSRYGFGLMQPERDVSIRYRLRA
Conditions: pre-incubation of the enzyme; Prostaglandins, 1976, 12, 715; cited from earlier work.

Experiment [2] relates to prostacyclin and thromboxane A2 levels. The following applies: cited from earlier work.
The test system of experiment [3] is arachidonic acid induced death in rabbits. The following applies: rabbit, intravenous injection of arachidonic acid; cited from earlier work.
Experiment [4] has as its system human blood platelet aggregation. Conditions: human blood platelets; cited from earlier work.
Experiment [5] relates to cyclo-oxygenase enzyme. The following applies: cited from earlier work.
For experiment [6], the target named is T2, thromboxane synthetase (Homo sapiens, UniProt P24557).
T2 construct: Indomethacin pre-treated human platelet microsomes; from tissue; host or cells: human blood platelets (microsomes)
T2 sequence (P24557 1-533): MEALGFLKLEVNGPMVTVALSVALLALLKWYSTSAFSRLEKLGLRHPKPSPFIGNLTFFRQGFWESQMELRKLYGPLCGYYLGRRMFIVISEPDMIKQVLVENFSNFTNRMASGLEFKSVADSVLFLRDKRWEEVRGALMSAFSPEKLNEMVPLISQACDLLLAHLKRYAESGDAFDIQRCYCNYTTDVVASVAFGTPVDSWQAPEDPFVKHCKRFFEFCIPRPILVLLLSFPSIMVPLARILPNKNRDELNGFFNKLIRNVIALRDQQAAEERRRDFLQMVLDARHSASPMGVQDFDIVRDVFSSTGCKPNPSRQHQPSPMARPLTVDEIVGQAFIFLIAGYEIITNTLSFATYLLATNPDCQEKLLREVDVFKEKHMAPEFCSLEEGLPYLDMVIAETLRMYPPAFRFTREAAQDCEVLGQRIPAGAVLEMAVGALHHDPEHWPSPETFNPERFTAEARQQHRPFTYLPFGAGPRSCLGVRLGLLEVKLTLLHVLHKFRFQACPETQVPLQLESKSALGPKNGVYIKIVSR
The experiment can be described thus: Thromboxane A2 (TxA2) synthetase inhibition (indomethacin pre-treated human platelet microsomes, rabbit aorta superfusion bioassay). It counts as biochemical. Conditions: 5 min pre-incubation, isometric tension of rabbit aorta, read-out: Molar concentration causing 50% inhibition of (1) thromboxane synthetase. The method, then: 3. Thromboxane A2 (TxA2) Synthetase
Indomethacin pre-treated human platelet microsomes (Science 1976, 193, 163) are incubated (2 min.: 0° C.) with PGH2 (produced as in 1) and aliquots of the reaction mixture superfused over two rabbit aorta spirals which are separated by a delay coil (2 min.). The latter is required to allow the selective decay of the more unstable thromboxane A2 (Proc. Nat. Acad. Sci., 1975, 72, 2994) thereby enabling the separate measurement of increased isometric tension due to the TxA2 formed and the PGH2 remaining. The test compound is pre-incubated with the enzyme for 5 minutes, and its ability to inhibit the thromboxane synthetase enzyme is measured as its reduction of the TxA2 component of the isometric tension.
(§1) The results of these tests are shown in the following Table, which gives the molar concentration of each compound which caused a 50% change in the effect of the relevant enzyme on isometric tension, i.e. caused a 50% inhibition of the action of that enzyme.

The target of experiment [7] is T3, cyclo-oxygenase (Ovis aries, UniProt P05979).
T3 construct: Ram seminal vesicle microsomes; from tissue; host or cells: ram seminal vesicle (microsomes)
T3 sequence (P05979 25-600): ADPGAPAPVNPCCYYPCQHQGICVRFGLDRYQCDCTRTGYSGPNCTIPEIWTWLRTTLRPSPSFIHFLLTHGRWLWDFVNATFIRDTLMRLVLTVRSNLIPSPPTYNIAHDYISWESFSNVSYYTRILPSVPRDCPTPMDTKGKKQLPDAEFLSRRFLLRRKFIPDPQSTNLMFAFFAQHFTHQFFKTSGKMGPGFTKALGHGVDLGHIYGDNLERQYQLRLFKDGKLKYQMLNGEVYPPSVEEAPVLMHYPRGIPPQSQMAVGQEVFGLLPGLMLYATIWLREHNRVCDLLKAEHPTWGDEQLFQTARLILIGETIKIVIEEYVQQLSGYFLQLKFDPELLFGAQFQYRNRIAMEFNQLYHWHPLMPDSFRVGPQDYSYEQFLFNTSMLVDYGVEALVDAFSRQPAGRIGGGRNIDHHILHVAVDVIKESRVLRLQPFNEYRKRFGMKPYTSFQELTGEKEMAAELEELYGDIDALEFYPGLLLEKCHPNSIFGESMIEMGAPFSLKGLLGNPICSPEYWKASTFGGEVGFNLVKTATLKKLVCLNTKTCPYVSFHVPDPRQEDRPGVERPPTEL
The experiment is described as follows: Cyclo-oxygenase inhibition (ram seminal vesicle microsomes, rabbit aorta strip bioassay). It is filed as biochemical. Conditions: 5 min pre-incubation, isometric tension of rabbit aorta, read-out: Molar concentration causing 50% inhibition of (2) cyclo-oxygenase. The method, then: Ram seminal vesicle microsomes (Biochemistry, 1971, 10, 2372) are incubated with arachidonic acid (100 μM: 1 min.: 22°) to produce PGH2 and aliquots of the reaction mixture injected into a stream of Krebs-bicarbonate at 37° C. (containing a mixture of antagonists (Nature, […], 218, 1135) and indomethacin (Brit. J. Pharmacol., 1972, 45, 451) which is superfusing a spirally-cut rabbit aorta strip (Nature, 1969, 223, 29). The ability of a compound to inhibit the enzyme is measured by comparing the increases in isometric tension produced by PGH2 in the absence of the test compound, and following pre-incubation of the enzyme with the test compound for 5 minutes.
as §1

In experiment [8] the target is T1, prostacyclin synthetase. The experiment can be described thus: Prostacyclin (PGI2) synthetase inhibition (pig aorta microsomes, rabbit aorta bioassay). It counts as biochemical. Conditions: 5 min pre-incubation, isometric tension of rabbit aorta, read-out: Molar concentration causing 50% inhibition of (3) prostacyclin synthetase. Here is the method:
2. Prostacyclin (PGI2) Synthetase
Pig aorta microsomes (Nature, 1976, 263, 663) are incubated (30 sec.: 22° C.) with PGH2 produced as in 1) and aliquots bio-assayed as in 1. […] The test compound is then pre-incubated with the enzyme for 5 minutes, and its ability to prevent the decrease in tension is measured.
as §1

Experiment [9] relates to aggregation of platelets. The following applies: rats, abdominal aorta, in vivo; cited from earlier work.

15-hydroperoxy-arachidonic acid: the “prevention of the decrease in PGH2-induced tension (PGI2 synthetase inhibition, in words)” value in [1] was “prevented completely”.

Regarding `CC(=O)Oc1ccccc1C(=O)O` [Aspirin], the “effect on prostacyclin and thromboxane A2 levels (in words)” value in [2] is “reduce both the prostacyclin and thromboxane A2 levels”. The “protection from the lethal effect of intravenous arachidonic acid” value in experiment [3] is “protect the rabbit from the lethal effect of the injection”. In addition, the “inhibitory activity in vitro against a variety of aggregating agents” value in experiment [4] is listed as “show inhibitory activity in vitro against a variety of aggregating agents”. Moreover, the “inhibition of the cyclo-oxygenase enzyme (in words)” value in experiment [5] is given as “inhibit the cyclo-oxygenase enzyme”.

Take `Cc1ccc(OCC(=O)O)c(Cn2ccnc2)c1` [Example 2, 2-(1-Imidazolylmethyl)-4-methyl-phenoxyacetic acid hydrochloride hemihydrate]: the IC50 in [6] was 8.2 nM; in experiment [7] it was more than 100000 nM; in experiment [8], more than 100000 nM.

`Cc1ccc(OCCCC(N)=O)c(Cn2ccnc2)c1` [Example 4, 4-[2-(1-Imidazolylmethyl)-4-methyl-phenoxy]butyramide]: the IC50 in experiment [6] is 2.4 nM; in experiment [7], more than 100000 nM.

For `Cc1ccc(OCc2ccc(C(=O)O)cc2)c(Cn2ccnc2)c1` [Example 5, 4-[2-(1-Imidazolylmethyl)-4-methyl-phenoxymethyl]benzoic acid], the IC50 in experiment [6] is 47 nM; in experiment [7], more than 100000 nM.

On to `NC(=O)COc1ccc(Cn2ccnc2)cc1` [Example 8, 4-(1-Imidazolylmethyl)phenoxyacetamide], for which the IC50 in experiment [6] is 46 nM; in [7], more than 100000 nM.

In the case of `O=C(O)COc1cccc(Cn2ccnc2)c1` [Example 24, 3-(1-Imidazolylmethyl)phenoxyacetic acid hydrochloride], the IC50 in [6] was 4.5 nM.

Regarding `O=C1C(CC[S+]([O-])c2ccccc2)C(=O)N(c2ccccc2)N1c1ccccc1` (stereo not drawn) [sulphinpyrazone], the “prevention of the aggregation of platelets in an extra corporeal loop” value in experiment [9] is “prevent the aggregation of platelets”. Further, the “protection from the lethal effect of intravenous arachidonic acid” value in [3] is on record as “protect the rabbit from the lethal effect of the injection”. Also, in experiment [4], the “inhibitory activity in vitro against a variety of aggregating agents” value is listed as “show inhibitory activity in vitro against a variety of aggregating agents”.
